Assay results reported in PubChem BioAssay (NCI).
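96-well plates; 48 h exposure; 5 concentrations. Endpoints by linear interpolation between flanking doses. Not reached: highest tested concentration assigned. TGI: concentration producing complete growth inhibition.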

Tests used:
Experiment in all cases: growth of human tumour cells (NCI), 48 h
HCT-15 colon = test system: HCT-15 colon
OVCAR-8 ovarian = test system: OVCAR-8 ovarian
SK-MEL-2 melanoma = test system: SK-MEL-2 melanoma
MALME-3M melanoma = test system: MALME-3M melanoma
SNB-75 CNS = test system: SNB-75 CNS
786-0 renal = test system: 786-0 renal
PC-3 prostate = test system: PC-3 prostate
HL-60(TB) leukemia = test system: HL-60(TB) leukemia
SF-268 CNS = test system: SF-268 CNS
K-562 leukemia = test system: K-562 leukemia
HOP-62 NSCLC = test system: HOP-62 NSCLC
HCC-2998 colon = test system: HCC-2998 colon
RPMI-8226 leukemia = test system: RPMI-8226 leukemia
EKVX NSCLC = test system: EKVX NSCLC
NCI/ADR-RES ovarian = test system: NCI/ADR-RES ovarian
IGROV1 ovarian = test system: IGROV1 ovarian
OVCAR-3 ovarian = test system: OVCAR-3 ovarian
U251 CNS = test system: U251 CNS
ACHN renal = test system: ACHN renal
LOX IMVI melanoma = test system: LOX IMVI melanoma
HCT-116 colon = test system: HCT-116 colon
SK-MEL-5 melanoma = test system: SK-MEL-5 melanoma
MDA-MB-231 breast = test system: MDA-MB-231 breast
MDA-MB-435 = test system: MDA-MB-435
KM12 colon = test system: KM12 colon
A498 renal = test system: A498 renal
SN12C renal = test system: SN12C renal
MOLT-4 leukemia = test system: MOLT-4 leukemia
UACC-257 melanoma = test system: UACC-257 melanoma
MCF7 breast = test system: MCF7 breast
SK-OV-3 ovarian = test system: SK-OV-3 ovarian
DU-145 prostate = test system: DU-145 prostate
SK-MEL-28 melanoma = test system: SK-MEL-28 melanoma
OVCAR-4 ovarian = test system: OVCAR-4 ovarian
SW-620 colon = test system: SW-620 colon
SF-295 CNS = test system: SF-295 CNS
COLO 205 colon = test system: COLO 205 colon
NCI-H460 lung = test system: NCI-H460 lung
T-47D breast = test system: T-47D breast
CAKI-1 renal = test system: CAKI-1 renal
M14 melanoma = test system: M14 melanoma
OVCAR-5 ovarian = test system: OVCAR-5 ovarian
SNB-19 CNS = test system: SNB-19 CNS
BT-549 breast = test system: BT-549 breast
MDA-N = test system: MDA-N
HT29 colon = test system: HT29 colon
TK-10 renal = test system: TK-10 renal
A549 NSCLC = test system: A549 NSCLC
HOP-92 NSCLC = test system: HOP-92 NSCLC
UO-31 renal = test system: UO-31 renal
UACC-62 melanoma = test system: UACC-62 melanoma
NCI-H522 lung = test system: NCI-H522 lung
HS 578T breast = test system: HS 578T breast
NCI-H23 lung = test system: NCI-H23 lung
RXF 393 renal = test system: RXF 393 renal
NCI-H226 lung = test system: NCI-H226 lung
SF-539 CNS = test system: SF-539 CNS
CCRF-CEM leukemia = test system: CCRF-CEM leukemia

SMILES: CC(C)CCNc1ncnc2[nH]ncc12
- TGI (HCT-15 colon): > 100 µM
- TGI (OVCAR-8 ovarian): > 100 µM
- TGI (SK-MEL-2 melanoma): > 100 µM
- TGI (MALME-3M melanoma): > 100 µM
- TGI (SNB-75 CNS): > 100 µM
- TGI (786-0 renal): > 100 µM
- TGI (PC-3 prostate): > 100 µM
- TGI (HL-60(TB) leukemia): > 100 µM
- TGI (SF-268 CNS): > 100 µM
- TGI (K-562 leukemia): > 100 µM
- TGI (HOP-62 NSCLC): > 100 µM
- TGI (HCC-2998 colon): > 100 µM
- TGI (RPMI-8226 leukemia): > 100 µM
- TGI (EKVX NSCLC): > 100 µM
- TGI (NCI/ADR-RES ovarian): > 100 µM
- TGI (IGROV1 ovarian): > 100 µM
- TGI (OVCAR-3 ovarian): > 100 µM
- TGI (U251 CNS): > 100 µM
- TGI (ACHN renal): > 100 µM
- TGI (LOX IMVI melanoma): > 100 µM
- TGI (HCT-116 colon): > 100 µM
- TGI (SK-MEL-5 melanoma): > 100 µM
- TGI (MDA-MB-231 breast): > 100 µM
- TGI (MDA-MB-435): > 100 µM
- TGI (KM12 colon): > 100 µM
- TGI (A498 renal): > 100 µM
- TGI (SN12C renal): > 100 µM
- TGI (MOLT-4 leukemia): > 100 µM
- TGI (UACC-257 melanoma): > 100 µM
- TGI (MCF7 breast): > 100 µM
- TGI (SK-OV-3 ovarian): > 100 µM
- TGI (DU-145 prostate): > 100 µM
- TGI (SK-MEL-28 melanoma): > 100 µM
- TGI (OVCAR-4 ovarian): > 100 µM
- TGI (SW-620 colon): > 100 µM
- TGI (SF-295 CNS): > 100 µM
- TGI (COLO 205 colon): > 100 µM
- TGI (NCI-H460 lung): > 100 µM
- TGI (T-47D breast): > 100 µM
- TGI (CAKI-1 renal): > 100 µM
- TGI (M14 melanoma): > 100 µM
- TGI (OVCAR-5 ovarian): > 100 µM
- TGI (SNB-19 CNS): > 100 µM
- TGI (BT-549 breast): > 100 µM
- TGI (MDA-N): > 100 µM
- TGI (HT29 colon): > 100 µM
- TGI (TK-10 renal): > 100 µM
- TGI (A549 NSCLC): > 100 µM
- TGI (HOP-92 NSCLC): > 100 µM
- TGI (UO-31 renal): > 100 µM
- TGI (UACC-62 melanoma): > 100 µM
- TGI (NCI-H522 lung): > 100 µM
- TGI (HS 578T breast): > 100 µM
- TGI (NCI-H23 lung): > 100 µM
- TGI (RXF 393 renal): > 100 µM
- TGI (NCI-H226 lung): > 100 µM

SMILES: N#CCCN(CCCN(C(=O)N(c1ccccc1)c1ccccc1)c1ccccc1)C(=O)Nc1ccccc1
- TGI (HCT-15 colon): > 100 µM
- TGI (OVCAR-8 ovarian): > 100 µM
- TGI (SK-MEL-2 melanoma): > 100 µM
- TGI (MALME-3M melanoma): > 100 µM
- TGI (SNB-75 CNS): > 100 µM
- TGI (786-0 renal): > 100 µM
- TGI (PC-3 prostate): > 100 µM
- TGI (HL-60(TB) leukemia): 45.1 µM
- TGI (SF-268 CNS): > 100 µM
- TGI (K-562 leukemia): > 100 µM
- TGI (HOP-62 NSCLC): > 100 µM
- TGI (HCC-2998 colon): > 100 µM
- TGI (RPMI-8226 leukemia): > 100 µM
- TGI (EKVX NSCLC): > 100 µM
- TGI (NCI/ADR-RES ovarian): > 100 µM
- TGI (OVCAR-3 ovarian): > 100 µM
- TGI (U251 CNS): > 100 µM
- TGI (ACHN renal): > 100 µM
- TGI (LOX IMVI melanoma): > 100 µM
- TGI (HCT-116 colon): > 100 µM
- TGI (SK-MEL-5 melanoma): > 100 µM
- TGI (MDA-MB-231 breast): > 100 µM
- TGI (MDA-MB-435): > 100 µM
- TGI (SF-539 CNS): > 100 µM
- TGI (KM12 colon): > 100 µM
- TGI (A498 renal): > 100 µM
- TGI (MOLT-4 leukemia): > 100 µM
- TGI (UACC-257 melanoma): > 100 µM
- TGI (MCF7 breast): > 100 µM
- TGI (SK-OV-3 ovarian): > 100 µM
- TGI (DU-145 prostate): > 100 µM
- TGI (SK-MEL-28 melanoma): > 100 µM
- TGI (OVCAR-4 ovarian): > 100 µM
- TGI (SW-620 colon): > 100 µM
- TGI (SF-295 CNS): > 100 µM
- TGI (NCI-H460 lung): > 100 µM
- TGI (T-47D breast): > 100 µM
- TGI (CAKI-1 renal): > 100 µM
- TGI (M14 melanoma): > 100 µM
- TGI (OVCAR-5 ovarian): > 100 µM
- TGI (SNB-19 CNS): > 100 µM
- TGI (BT-549 breast): > 100 µM
- TGI (MDA-N): > 100 µM
- TGI (HT29 colon): > 100 µM
- TGI (TK-10 renal): > 100 µM
- TGI (A549 NSCLC): > 100 µM
- TGI (HOP-92 NSCLC): > 100 µM
- TGI (UO-31 renal): > 100 µM
- TGI (UACC-62 melanoma): > 100 µM
- TGI (NCI-H522 lung): > 100 µM
- TGI (HS 578T breast): > 100 µM
- TGI (CCRF-CEM leukemia): 83.6 µM
- TGI (NCI-H23 lung): > 100 µM
- TGI (RXF 393 renal): > 100 µM
- TGI (NCI-H226 lung): > 100 µM
